According to PubChem BioAssay (NCI):
“And” between values parts separate entries of the source, which are not always exact repeats. Identical values can stand only once.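 Compound exposure: 48 hours, 5 concentrations, 96-well plates. GI50 is the concentration that inhibits growth by half. Definition used: TGI = concentration required for complete inhibition of growth.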

What was measured:
Assay in all cases: NCI tumour cell line growth inhibition, 48 h
HT29 colon = tested on: HT29 colon
NCI/ADR-RES ovarian = tested on: NCI/ADR-RES ovarian
K-562 leukemia = tested on: K-562 leukemia
BT-549 breast = tested on: BT-549 breast
ACHN renal = tested on: ACHN renal
SF-539 CNS = tested on: SF-539 CNS
MALME-3M melanoma = tested on: MALME-3M melanoma
A549 NSCLC = tested on: A549 NSCLC
SK-OV-3 ovarian = tested on: SK-OV-3 ovarian
LOX IMVI melanoma = tested on: LOX IMVI melanoma

SMILES	GI50 (HT29 colon)	TGI (HT29 colon)	GI50 (NCI/ADR-RES ovarian)	TGI (NCI/ADR-RES ovarian)	GI50 (K-562 leukemia)	TGI (K-562 leukemia)	GI50 (BT-549 breast)	TGI (BT-549 breast)	GI50 (ACHN renal)	TGI (ACHN renal)	GI50 (SF-539 CNS)	TGI (SF-539 CNS)	GI50 (MALME-3M melanoma)	TGI (MALME-3M melanoma)	GI50 (A549 NSCLC)	TGI (A549 NSCLC)	GI50 (SK-OV-3 ovarian)	TGI (SK-OV-3 ovarian)	GI50 (LOX IMVI melanoma)	TGI (LOX IMVI melanoma)
COc1ccc2c(c1)/C(=C\c1c(C)nc3sc(C)cn13)C(=O)N2C	3.27 µM	19.2 µM	1.32 µM	4.04 µM	1.83 µM	> 100 µM	6.01 µM	49.7 µM	4.82 µM	62.7 µM	1.91 µM	6.63 µM	7.09 µM	73.3 µM	30.7 µM	> 100 µM	2.35 µM	7.18 µM	4.4 µM	26.2 µM
CCOc1cc2ncc(C#N)c(Nc3ccc(OCc4cccc(F)c4)c(Cl)c3)c2cc1NC(=O)CC1CCSS1 (stereo unspecified)	0.907 µM	> 25 µM	> 25 µM	> 25 µM	0.902 µM	> 25 µM	1.87 µM	> 25 µM	3.1 µM	> 25 µM	2.28 µM	> 25 µM	> 22.3 µM	> 25 µM	0.542 µM	1.16 µM	0.476 µM	0.905 µM	0.447 µM	1.01 µM
N=C1C(c2nc(-c3ccc(Br)cc3)cs2)=C(O)CN1Cc1cccnc1	13.4 µM	> 100 µM	16.3 µM	> 100 µM	8.17 µM	> 100 µM	42.6 µM	> 100 µM	16.4 µM	98.8 µM	15.5 µM	84.8 µM	14.6 µM	> 100 µM	26.6 µM	> 100 µM	25.3 µM	> 100 µM	12 µM	29.4 µM
CN1CC[C@@H](c2c(O)cc(O)c3c(=O)cc(-c4ccccc4Cl)oc23)[C@@H](O)C1	0.178 µM	24.8 µM	0.256 µM and 0.0763 µM		0.212 µM and 0.145 µM		0.171 µM and 0.178 µM		0.0346 µM	15.6 µM	0.0688 µM and 0.0197 µM	0.141 µM and 0.057 µM and 0.148 µM	0.166 µM and 0.144 µM	0.439 µM and 0.465 µM	0.0793 µM and 0.161 µM	33.8 µM	0.201 µM and 0.428 µM	> 100 µM	0.0289 µM	> 100 µM
O=C(CN1CCN(c2ncccn2)CC1)Nc1ccc(Cl)cc1C(=O)c1ccccc1Cl	63.6 µM	> 100 µM	> 100 µM	> 100 µM	32 µM	> 100 µM	> 100 µM	> 100 µM	> 100 µM	> 100 µM	> 100 µM	> 100 µM	> 100 µM	> 100 µM	47.6 µM	> 100 µM	> 100 µM	> 100 µM	> 100 µM	> 100 µM
COc1cc(C2C=C(c3cccc(NC(C)=O)c3)Nc3ncnn32)cc(OC)c1OC (stereo unspecified)	1.38 µM	> 100 µM	8.04 µM	63.7 µM	0.447 µM	> 44.1 µM	1.07 µM	> 100 µM	3.47 µM	> 100 µM	0.367 µM	2 µM	0.389 µM	> 100 µM	6.68 µM	> 100 µM	0.903 µM	> 100 µM	0.596 µM	> 100 µM
O=[N+]([O-])C1C(c2ccccc2)C12c1ccccc1-c1ccccc12 (stereo unspecified)	0.349 µM	15.5 µM	0.657 µM	> 23.7 µM	0.452 µM	> 65.9 µM	0.543 µM	7.32 µM	1.47 µM	19.1 µM	1.31 µM	9 µM	15 µM	37.8 µM	1.91 µM	> 100 µM	1.84 µM	> 41.1 µM	0.416 µM	2.47 µM
CC(=O)Nc1ccc2c(c1)c(C1=C(c3cn(C)c4ccccc34)C(=O)NC1=O)cn2C	0.925 µM	> 25 µM	1.58 µM	> 25 µM	0.926 µM	> 25 µM	1.55 µM	14.8 µM	1.57 µM	> 25 µM	0.671 µM	1.97 µM	> 9.93 µM	> 25 µM	1.65 µM	> 25 µM	1.22 µM	> 25 µM	1.63 µM	> 25 µM
N#CCC1COc2ccccc2O1 (stereo unspecified)		> 10 µM		> 10 µM		> 10 µM		> 10 µM		> 10 µM		> 10 µM		> 10 µM		> 10 µM		> 10 µM		> 10 µM
C[C@@H]1C[C@@H](O)[C@]2(O)O[C@@H]3C[C@@]4(C=O)[C@@H](CC[C@@H]5[C@@H]4CC[C@]4(C)[C@@H](C6=CC(=O)OC6)CC[C@]54O)C[C@H]3O[C@@H]2O1	0.0534 µM and 0.0141 µM	0.0734 µM and 0.198 µM and 0.0745 µM		0.118 µM	0.0553 µM and 0.0124 µM	0.601 µM and 1.59 µM and 0.523 µM		0.179 µM	0.00692 µM and 0.005 µM		0.015 µM and 0.005 µM	0.0146 µM and 0.037 µM and 0.0144 µM	0.0256 µM and 0.0163 µM	0.032 µM and 0.0802 µM and 0.0994 µM	0.0146 µM	0.0117 µM and 0.0413 µM	0.0636 µM and 0.0173 µM		0.0472 µM	0.0624 µM and 0.165 µM and 0.0884 µM
CN1CCN(CN2C(=O)C3C4C=CC(C3C2=O)C2C3C(=O)N(CN5CCN(C)CC5)C(=O)C3C42)CC1 (stereo unspecified)		> 100 µM		64.5 µM		81.4 µM and 55.6 µM and 58.2 µM		69.6 µM		73.6 µM and > 61.3 µM and 48.5 µM		44.4 µM and 45.4 µM and 49.1 µM		34.2 µM		90.5 µM and 57.5 µM and 36.2 µM	37.4 µM and 34.1 µM and 80.1 µM	> 100 µM		35.5 µM and 37.4 µM and 33.8 µM
COc1ccc2nc(N/N=C(\C)c3ccccn3)cc(C)c2c1	0.116 µM		0.274 µM		0.303 µM	1.3 µM	0.168 µM	1.96 µM	0.22 µM	1.21 µM	0.269 µM	1.23 µM	0.23 µM	0.697 µM	0.315 µM	3.24 µM	0.269 µM	2.08 µM	0.236 µM	1.28 µM
CNC(=O)c1cc(OC2CCC(NC(=O)Nc3ccc(Cl)c(C(F)(F)F)c3)CC2)ccn1 (stereo unspecified)	4.25 µM	16.2 µM	5.67 µM	44.3 µM	3.66 µM	17.3 µM	7.8 µM	23.6 µM	7.76 µM	31.5 µM	12 µM	29.6 µM	9.64 µM	34.3 µM	4.53 µM	26.6 µM	18.8 µM	40.1 µM	4.96 µM	22.2 µM
CS(=O)(=O)CCNCc1nc(-c2ccc3ncnc(Nc4ccc(F)c(Cl)c4)c3c2)cs1	16.5 µM	> 25 µM	13.9 µM	> 25 µM	> 12.5 µM	> 19.7 µM	> 25 µM	> 25 µM	0.785 µM	> 25 µM	> 25 µM	> 25 µM	> 23.6 µM	> 25 µM	15.8 µM	> 25 µM	1.96 µM	11 µM	14.1 µM	> 25 µM
COc1ccc(N=C2CSc3nnc(-c4cc(F)c(Cl)cc4Cl)n3N2)cc1	0.395 µM	2.11 µM	2.96 µM	> 100 µM	0.515 µM	18.1 µM	1.77 µM	24.4 µM	2.33 µM	11.5 µM	1.05 µM	2.63 µM	0.529 µM	3.77 µM	1.5 µM	4.42 µM	0.987 µM	5.39 µM	0.897 µM	11.1 µM
COc1ccc(C(=O)/C(Br)=C/C(=O)O)cc1	59.4 µM	658 µM and 491 µM	18.3 µM	387 µM and 116 µM	18.8 µM	281 µM and 352 µM	242 µM	96.4 µM and 406 µM	78.8 µM	293 µM and 235 µM	9.18 µM and 27.3 µM	90.7 µM and 87.3 µM	18.8 µM	47.3 µM and 45.2 µM	25.2 µM	275 µM and 246 µM		358 µM and 299 µM	18.1 µM	53.2 µM and 53 µM
O=[N+]([O-])c1ccc(C(c2c[nH]c3ccccc23)c2c[nH]c3ccccc23)cc1		31.8 µM		27.5 µM		48 µM		14.3 µM		21.5 µM		30.6 µM		37.6 µM		41.4 µM		33.1 µM		41.2 µM
